Measurements reported in ChEMBL document CHEMBL1201862, “PubChem BioAssay data set” (2004).
“And” between values parts separate entries of the source, which are not always exact repeats. Equal entries are not always repeated.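 Compound exposure: 48 hours, 5 concentrations, 96-well plates. GI50 marks 50% less growth.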 The source made the active and inactive calls. No stated cut-off is given here; in the data, active = GI50 up to about 1.1 µM and inactive = higher.

Legend:
Experiment in all cases: NCI anticancer screen, dose series, 48 h
[1] = test system: SW-620
[2] = test system: PC-3
[3] = test system: NCI-H522
[4] = test system: U-251
[5] = test system: TK-10
[6] = test system: NCI-H23
[7] = test system: MDA-N
[8] = test system: SNB-75
[9] = test system: RPMI-8226
[10] = test system: 786-0
[11] = test system: SK-MEL-5
[12] = test system: HOP-62
[13] = test system: SK-OV-3
[14] = test system: HOP-92
[15] = test system: SF-268
[16] = test system: SN12C
[17] = test system: KM12
[18] = test system: OVCAR-3
[19] = test system: K562
[20] = test system: OVCAR-8
[21] = test system: UACC-257
[22] = test system: UO-31
[23] = test system: SK-MEL-28
[24] = test system: OVCAR-4
[25] = test system: NCI/ADR-RES
[26] = test system: HCT-116
[27] = test system: DU-145
[28] = test system: T47D
[29] = test system: MOLT-4
[30] = test system: NCI-H226
[31] = test system: HCC 2998
[32] = test system: OVCAR-5
[33] = test system: COLO 205
[34] = test system: HL-60
[35] = test system: A549
[36] = test system: ACHN
[37] = test system: NCI-H460
[38] = test system: SF-295
[39] = test system: Malme-3M
[40] = test system: MDA-MB-231
[41] = test system: Hs-578T
[42] = test system: A498
[43] = test system: LOX IMVI
[44] = test system: EKVX
[45] = test system: HCT-15
[46] = test system: SR
[47] = test system: SF-539
[48] = test system: CCRF-CEM
[49] = test system: HT-29
[50] = test system: IGROV-1
[51] = test system: MDA-MB-435
[52] = test system: SNB-19
[53] = test system: RXF 393
[54] = test system: MCF7
[55] = test system: CAKI-1
[56] = test system: M14
[57] = test system: SK-MEL-2
[58] = test system: UACC-62

CC(C)(C)C(=O)/C=C(\OB(F)F)C(C)(C)C
GI50 [1]: > 100 µM (inactive)
GI50 [2]: > 100 µM (inactive)
GI50 [3]: > 100 µM (inactive)
GI50 [4]: > 100 µM (inactive)
GI50 [5]: > 100 µM (inactive)
GI50 [6]: > 100 µM (inactive)
GI50 [7]: > 100 µM (inactive)
GI50 [8]: > 100 µM (inactive)
GI50 [9]: > 100 µM (inactive)
GI50 [10]: > 100 µM (inactive)
GI50 [11]: > 100 µM (inactive)
GI50 [12]: > 100 µM (inactive)
GI50 [13]: > 100 µM (inactive)
GI50 [14]: > 100 µM (inactive)
GI50 [15]: > 100 µM (inactive)
GI50 [16]: > 100 µM (inactive)
GI50 [17]: > 100 µM (inactive)
GI50 [18]: > 100 µM (inactive)
GI50 [19]: > 100 µM (inactive)
GI50 [20]: > 100 µM (inactive)
GI50 [21]: > 100 µM (inactive)
GI50 [22]: > 100 µM (inactive)
GI50 [23]: > 100 µM (inactive)
GI50 [24]: > 100 µM (inactive)
GI50 [25]: > 100 µM (inactive)
GI50 [26]: > 100 µM (inactive)
GI50 [27]: > 100 µM (inactive)
GI50 [28]: > 100 µM (inactive)
GI50 [29]: > 100 µM (inactive)
GI50 [30]: > 100 µM (inactive)
GI50 [31]: > 100 µM (inactive)
GI50 [32]: > 100 µM (inactive)
GI50 [33]: > 100 µM (inactive)
GI50 [34]: > 100 µM (inactive)
GI50 [35]: > 100 µM (inactive)
GI50 [36]: > 100 µM (inactive)
GI50 [37]: > 100 µM (inactive)
GI50 [38]: > 100 µM (inactive)
GI50 [39]: > 100 µM (inactive)
GI50 [40]: > 100 µM (inactive)
GI50 [41]: > 100 µM (inactive)
GI50 [42]: > 100 µM (inactive)
GI50 [43]: > 100 µM (inactive)
GI50 [44]: > 100 µM (inactive)
GI50 [45]: > 100 µM
GI50 [46]: 84.5 µM (inactive)
GI50 [47]: > 100 µM (inactive)
GI50 [48]: > 100 µM (inactive)
GI50 [49]: > 100 µM (inactive)
GI50 [50]: > 100 µM (inactive)
GI50 [51]: > 100 µM (inactive)
GI50 [52]: > 100 µM (inactive)
GI50 [53]: > 100 µM (inactive)
GI50 [54]: > 100 µM (inactive)
GI50 [55]: > 100 µM (inactive)
GI50 [56]: > 100 µM (inactive)
GI50 [57]: > 100 µM (inactive)

CN(C)CCOC1(Cc2ccc(F)cc2)CCC(C(C)(C)C)CC1 (stereo unspecified)
GI50 [1]: 4.37 µM (inactive) and 7.36 µM (inactive)
GI50 [2]: 5.85 µM (inactive) and 5.07 µM (inactive)
GI50 [3]: 6.08 µM (inactive) and 10.7 µM (inactive)
GI50 [4]: 5.28 µM (inactive) and 6.25 µM (inactive)
GI50 [5]: 6.95 µM (inactive) and 12 µM (inactive)
GI50 [6]: 13.3 µM (inactive) and 12 µM (inactive)
GI50 [7]: 3.2 µM (inactive) and 5.93 µM (inactive)
GI50 [9]: 2.3 µM (inactive) and 2.48 µM (inactive)
GI50 [10]: 4.92 µM (inactive) and 4.2 µM (inactive)
GI50 [11]: 1.93 µM (inactive) and 1.74 µM (inactive)
GI50 [12]: 7 µM (inactive) and 6.82 µM (inactive)
GI50 [13]: 14 µM (inactive) and 15.2 µM (inactive)
GI50 [14]: 12.2 µM (inactive)
GI50 [15]: 12.4 µM (inactive) and 12.9 µM (inactive)
GI50 [58]: 4.36 µM (inactive) and 6.52 µM (inactive)
GI50 [16]: 11.3 µM (inactive) and 12 µM (inactive)
GI50 [17]: 5.62 µM (inactive) and 5.02 µM (inactive)
GI50 [18]: 8.67 µM (inactive) and 13.4 µM (inactive)
GI50 [19]: 2.03 µM (inactive) and 2.19 µM (inactive)
GI50 [20]: 11.2 µM (inactive) and 12.8 µM (inactive)
GI50 [21]: 5.58 µM (inactive) and 4.09 µM (inactive)
GI50 [22]: 6.12 µM (inactive) and 4.81 µM (inactive)
GI50 [23]: 6.05 µM (inactive) and 4.17 µM (inactive)
GI50 [25]: 12.9 µM (inactive) and 10.6 µM (inactive)
GI50 [26]: 4.39 µM (inactive) and 4.75 µM (inactive)
GI50 [27]: 9.2 µM (inactive) and 9.44 µM (inactive)
GI50 [28]: 4.34 µM (inactive) and 5.09 µM (inactive)
GI50 [29]: 3.13 µM (inactive) and 2.61 µM (inactive)
GI50 [30]: 9.38 µM (inactive) and 10.5 µM (inactive)
GI50 [31]: 2.96 µM (inactive) and 3.14 µM (inactive)
GI50 [32]: 7.59 µM (inactive) and 7.85 µM (inactive)
GI50 [33]: 2.03 µM (inactive) and 2.15 µM (inactive)
GI50 [34]: 2.84 µM (inactive) and 2.93 µM (inactive)
GI50 [35]: 9.77 µM (inactive) and 11.9 µM (inactive)
GI50 [36]: 11 µM (inactive) and 12.9 µM (inactive)
GI50 [37]: 3.27 µM (inactive) and 2.23 µM (inactive)
GI50 [38]: 5.75 µM (inactive) and 6.38 µM (inactive)
GI50 [39]: 4.38 µM (inactive) and 2.84 µM (inactive)
GI50 [40]: 9.62 µM (inactive) and 10.5 µM (inactive)
GI50 [41]: 11.7 µM (inactive) and 14 µM (inactive)
GI50 [42]: 12.6 µM (inactive) and 14.7 µM (inactive)
GI50 [43]: 2.42 µM (inactive) and 3.2 µM (inactive)
GI50 [44]: 11 µM (inactive) and 16 µM (inactive)
GI50 [45]: 8.13 µM and 6.81 µM
GI50 [46]: 2.63 µM (inactive) and 2.29 µM (inactive)
GI50 [48]: 3.19 µM (inactive) and 2.64 µM (inactive)
GI50 [49]: 2.88 µM (inactive) and 2.7 µM (inactive)
GI50 [50]: 11.1 µM (inactive) and 11.5 µM (inactive)
GI50 [51]: 3.51 µM (inactive) and 4.54 µM (inactive)
GI50 [52]: 7.31 µM (inactive) and 11.9 µM (inactive)
GI50 [53]: 0.857 µM (active)
GI50 [54]: 6.04 µM (inactive) and 5.24 µM (inactive)
GI50 [55]: 6.47 µM (inactive) and 7.69 µM (inactive)
GI50 [56]: 1.67 µM (inactive) and 2.05 µM (inactive)
